Columns and labels:
[1] = used in vitro to dye a cell; cited from earlier work
[2] = sensitivity of the VSD according to an external voltage (FIGS. 4A and 4B); conditions: electrical stimulation=500 mA; compared with Di-4-ANEPPS
From the text: VSD according to an external voltage, and FIG. 4B is a diagram showing sensitivity of the VSD of the exemplary embodiment of the present invention according to an external voltage.
Referring to FIGS. 4A and 4B, sensitivities according to a voltage between the conventional VSD (Di-4-ANEPPS) in FIG. 4A and the VSD according to the exemplary embodiment of the present invention (ETRI-Di-8) in FIG. 4B are compared (electrical stimulation=500 mA).

CCCCN(CCCC)c1ccc2cc(/C=C/c3cc[n+](CCCS(=O)(=O)[O-])cc3)ccc2c1 [Di-4-ANEPPS]
sensitivity to an electric field [1]: approximately 10 % per 100 mV

O=S1(=O)CCCO1 [ETRI-Di-8]
voltage sensitivity relative to Di-4-ANEPPS [2]: three
